Assay results from patent US20060069132A1, “Azolecarboxamide herbicides” (priority 2004, published 2006).

How the values were obtained:
[1] = system: Surinam grass; experiment: Test B pre-/postemergence herbicide test; type: in vivo, Urochloa decumbens; conditions: for Surinam Grass plant response rating: postemergence
In short: (§1)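 Formulation: non-phytotoxic solvent mix with surfactant. Timing: preemergence on seed and postemergence on 2–18 cm plants, applied concurrently. Readout after 13–15 d greenhouse: visual 0–100 control rating against controls.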

[2] = system: rice; experiment: Test B pre-/postemergence herbicide test; type: in vivo, Oryza sativa; conditions: 0 = no effect, 100 = complete control, preemergence
In short: as §1

[3] = system: barnyardgrass; experiment: Test B flooded paddy test; type: in vivo, Echinochloa crus-galli; conditions: 1000 g ai/ha, scale 0 to 100 (0 no effect, 100 complete control)
In short: (§2)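 Postemergence plants were sprayed with formulated test chemicals at 2 to 18 cm height (1- to 4-leaf stage); paddy species were grown to the 2-leaf stage. After 13 to 15 days in a greenhouse, injury was rated visually against untreated controls on a 0–100 scale (0 = no effect, 100 = complete control).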

[4] = system: morningglory; experiment: Test B pre-/postemergence herbicide test; type: in vivo, Ipomoea coccinea; conditions: for Morningglory plant response rating: postemergence
In short: (§3)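 Seeds were planted and treated preemergence with compounds formulated in a non-phytotoxic solvent mixture containing surfactant, while plants at the 1- to 4-leaf stage (2 to 18 cm) received postemergence sprays. Flooded paddy plants were grown to the 2-leaf stage. After 13 to 15 days in a greenhouse, injury was visually rated 0–100 against untreated controls.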

[5] = system: lambsquarters; experiment: Test B pre-/postemergence herbicide test; type: in vivo, Chenopodium album; conditions: for Lambsquarters plant response rating: postemergence
In short: as §1

[6] = system: wild oat; experiment: Test B postemergence herbicide test; type: in vivo, Avena fatua; conditions: postemergence
In short: (§4)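 Read-out: visual comparison with controls, scored 0 to 100, where 100 means complete control and 0 no effect. Formulated chemicals were applied postemergence to plants 2–18 cm tall (1- to 4-leaf), or to flooded-paddy plants at the 2-leaf stage, then held 13 to 15 days under glass.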

[7] = system: rice; experiment: Test B flooded paddy test; type: in vivo, Oryza sativa; conditions: 1000 g ai/ha, scale 0 to 100 (0 no effect, 100 complete control)
In short: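 Scale 0–100: zero equals no visible effect, 100 complete control, judged by eye relative to controls. Timing: 13 to 15 days in greenhouse post-treatment. Growth stage at spraying: two leaves (paddy) or one to four leaves, 2–18 cm (postemergence).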

[8] = system: giant foxtail; experiment: Test A pre-/postemergence herbicide test; type: in vivo, Setaria faberi
In short: (§5)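 Seeds sown in sandy loam received a preemergence directed soil spray of compound in non-phytotoxic solvent with surfactant; postemergence plants (2–10 cm, one- to two-leaf stage) were sprayed to runoff at the same time. After ~10 days in greenhouse, injury was rated visually versus untreated controls (0 = no effect, 100 = complete control).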

[9] = system: blackgrass; experiment: Test B postemergence herbicide test; type: in vivo, Alopecurus myosuroides; conditions: postemergence
In short: as §2

[10] = system: barnyardgrass; experiment: Test A pre-/postemergence herbicide test; type: in vivo, Echinochloa crus-galli
In short: as §5

[11] = system: velvetleaf; experiment: Test A pre-/postemergence herbicide test; type: in vivo, Abutilon theophrasti
In short: as §5

[12] = system: large crabgrass; experiment: Test A pre-/postemergence herbicide test; type: in vivo, Digitaria sanguinalis
In short: as §5

[13] = system: corn; experiment: Test B pre-/postemergence herbicide test; type: in vivo, Zea mays; conditions: for Corn plant response rating: postemergence
In short: as §1

[14] = system: small flower umbrella sedge; experiment: Test B flooded paddy test; type: in vivo, Cyperus difformis; conditions: 1000 g ai/ha, scale 0 to 100 (0 no effect, 100 complete control)
In short: as §2

[15] = system: ducksalad; experiment: Test B flooded paddy test; type: in vivo, Heteranthera limosa; conditions: 1000 g ai/ha, scale 0 to 100 (0 no effect, 100 complete control)
In short: as §2

[16] = system: cocklebur; experiment: Test B pre-/postemergence herbicide test; type: in vivo, Xanthium strumarium; conditions: for Cocklebur plant response rating: postemergence
In short: as §3

[17] = system: barnyardgrass; experiment: Test B pre-/postemergence herbicide test; type: in vivo, Echinochloa crus-galli; conditions: for Barnyardgrass plant response rating: postemergence
In short: as §3

[18] = system: redroot pigweed; experiment: Test A pre-/postemergence herbicide test; type: in vivo, Amaranthus retroflexus
In short: as §5

[19] = system: wheat; experiment: Test B postemergence herbicide test; type: in vivo, Triticum aestivum; parameters: key to Wheat plant response rating: 0 = no effect, 100 = complete control; conditions: postemergence
In short: as §4

[20] = system: morningglory; experiment: Test A pre-/postemergence herbicide test; type: in vivo, Ipomoea spp.
In short: as §5

[21] = system: pigweed; experiment: Test B pre-/postemergence herbicide test; type: in vivo, Amaranthus retroflexus; conditions: for Pigweed plant response rating: postemergence
In short: as §1

[22] = system: velvetleaf; experiment: Test B pre-/postemergence herbicide test; type: in vivo, Abutilon theophrasti; conditions: for Velvetleaf plant response rating: postemergence
In short: as §1

[23] = system: large crabgrass; experiment: Test B pre-/postemergence herbicide test; type: in vivo, Digitaria sanguinalis; conditions: for Crabgrass, Large plant response rating: postemergence
In short: as §1

[24] = system: giant foxtail; experiment: Test B pre-/postemergence herbicide test; type: in vivo, Setaria faberi; conditions: for Foxtail, Giant plant response rating: postemergence
In short: as §1

[25] = 125 g ai/ha, 0 = no effect, 100 = complete control, preemergence
[26] = 125 g ai/ha, visual rating, scale 0 (no effect) to 100 (complete control)
[27] = 500 g ai/ha, visual rating, 0 = no effect, 100 = complete control, preemergence
[28] = 500 g ai/ha, scale 0 to 100, 0 is no effect, 100 is complete control
[29] = Postemergence, 500 g ai/ha, 0 to 100 scale, 0 no effect, 100 complete control
[30] = Postemergence, 2000 g ai/ha, 0 to 100 scale, 0 no effect, 100 complete control
[31] = Preemergence, 2000 g ai/ha, visual rating, 0 to 100 scale (0 no effect, 100 complete control)
[32] = preemergence, 500 g ai/ha, visual injury, 0 to 100 scale (0 no effect, 100 complete control)

CCn1nc(C(C)(C)C)cc1C(=O)Nc1cncc(C(=O)NCC(F)(F)F)n1 [Compound 291]
Surinam Grass plant response rating (0 to 100 scale) [1, 25]: 0
Surinam Grass plant response rating [1, 26]: 0
Plant response rating, Surinam Grass [1, 27]: 0
Surinam Grass plant response rating [1, 28]: 60
Rice plant response rating (0 to 100 scale) ([2]; 125 g ai/ha): 0
Plant response rating, Rice ([2]; 500 g ai/ha, visual rating): 0
Barnyardgrass plant response rating [3]: 0
Morningglory plant response rating (0 to 100 scale) [4, 25]: 0
Morningglory plant response rating [4, 26]: 0
Plant response rating, Morningglory [4, 27]: 0
Morningglory plant response rating [4, 28]: 40
Lambsquarters plant response rating (0 to 100 scale) [5, 25]: 0
Lambsquarters plant response rating [5, 26]: 20
Plant response rating, Lambsquarters [5, 27]: 0
Lambsquarters plant response rating [5, 28]: 60
Oat, Wild plant response rating [6, 26]: 10
Oat, Wild plant response rating [6, 28]: 20
Rice plant response rating [7]: 0
Foxtail, Giant plant response rating [8, 29]: 30
Plant response rating, Foxtail, Giant [8, 30]: 75
Foxtail, Giant plant response rating [8, 31]: 0
Foxtail, Giant plant response rating [8, 32]: 0
Blackgrass plant response rating [9, 26]: 0
Blackgrass plant response rating [9, 28]: 10
Barnyardgrass plant response rating [10, 29]: 25
Plant response rating, Barnyardgrass [10, 30]: 40
Barnyardgrass plant response rating [10, 31]: 25
Barnyardgrass plant response rating [10, 32]: 0
Velvetleaf plant response rating [11, 29]: 5
Plant response rating, Velvetleaf [11, 30]: 10
Velvetleaf plant response rating [11, 31]: 0
Velvetleaf plant response rating [11, 32]: 0
Crabgrass, Large plant response rating [12, 29]: 5
Plant response rating, Crabgrass, Large [12, 30]: 25
Crabgrass, Large plant response rating [12, 31]: 10
Crabgrass, Large plant response rating [12, 32]: 0
Corn plant response rating (0 to 100 scale) [13, 25]: 0
Corn plant response rating [13, 26]: 0
Plant response rating, Corn [13, 27]: 0
Corn plant response rating [13, 28]: 60
Sedge, Umbrella plant response rating [14]: 0
Ducksalad plant response rating [15]: 0
Cocklebur plant response rating (0 to 100 scale) [16, 25]: 0
Cocklebur plant response rating [16, 26]: 0
Plant response rating, Cocklebur [16, 27]: 0
Cocklebur plant response rating [16, 28]: 10
Barnyardgrass plant response rating (0 to 100 scale) [17, 25]: 0
Barnyardgrass plant response rating [17, 26]: 0
Plant response rating, Barnyardgrass [17, 27]: 0
Barnyardgrass plant response rating [17, 28]: 30
Pigweed plant response rating [18, 29]: 20
Plant response rating, Pigweed [18, 30]: 30
Pigweed plant response rating [18, 31]: 35
Pigweed plant response rating [18, 32]: 0
Wheat plant response rating [19, 26]: 0
Wheat plant response rating [19, 28]: 0
Morningglory plant response rating [20, 29]: 5
Plant response rating, Morningglory [20, 30]: 10
Morningglory plant response rating [20, 31]: 0
Morningglory plant response rating [20, 32]: 0
Pigweed plant response rating (0 to 100 scale) [21, 25]: 0
Pigweed plant response rating [21, 26]: 0
Plant response rating, Pigweed [21, 27]: 0
Pigweed plant response rating [21, 28]: 30
Velvetleaf plant response rating [22, 26]: 0
Plant response rating, Velvetleaf [22, 27]: 0
Velvetleaf plant response rating [22, 28]: 60
Crabgrass, Large plant response rating (0 to 100 scale) [23, 25]: 0
Crabgrass, Large plant response rating [23, 26]: 0
Plant response rating, Crabgrass, Large [23, 27]: 0
Crabgrass, Large plant response rating [23, 28]: 30
Foxtail, Giant plant response rating (0 to 100 scale) [24, 25]: 0
Foxtail, Giant plant response rating [24, 26]: 10
Plant response rating, Foxtail, Giant [24, 27]: 0
Foxtail, Giant plant response rating [24, 28]: 80
